According to patent publication US6352989B1, “Nitrogenous heterocyclic derivatives and medicine thereof” (Eisai Co., Ltd., priority 1998, dated 2002):

melting point | SMILES
201 to 203 °C | CNc1nc(-c2cccc(NC(=O)c3ccccc3)c2)c2cc(OC)c(OC)cc2n1 [Example 1, 4-(3-Benzoylaminophenyl)-6,7-dimethoxy-2-methylaminoquinazoline]
175 to 177 °C | CNc1nc(-c2cccc(NC(=O)c3ccccn3)c2)c2cc(OC)c(OC)cc2n1 [Example 3, 6,7-Dimethoxy-2-methylamino-4-[3-(2-pyridinecarbonylamino)phenyl]quinazoline]
251 to 253 °C | CNc1nc(-c2cccc(NC(=O)c3cccnc3)c2)c2cc(OC)c(OC)cc2n1 [Example 4, 6,7-Dimethoxy-2-methylamino-4-[3-(3-pyridinecarbonylamino)phenyl]quinazoline]
205 to 207 °C | CNc1nc(-c2cccc(NC(=O)c3ccc4c(c3)OCO4)c2)c2cc(OC)c(OC)cc2n1 [Example 5, 6,7-Dimethoxy-2-methylamino-4-[3-(3,4-methylenedioxybenzoylamino)phenyl]quinazoline]
175 to 177 °C | CNc1nc(-c2cccc(NC(=O)Cc3ccccc3)c2)c2cc(OC)c(OC)cc2n1 [Example 6, 6,7-Dimethoxy-2-methylamino 4-[3-(phenylacetylamino)phenyl]quinazoline]
180 to 182 °C | CNc1nc(-c2cccc(NC(=O)CCc3ccccc3)c2)c2cc(OC)c(OC)cc2n1 [Example 7, 6,7-Dimethoxy-2-methylamino-4-[3-(3-phenylpropanoylamino)phenyl]quinazoline]
197 to 199 °C | CNc1nc(-c2cccc(NC(=O)c3ccccc3Cl)c2)c2cc(OC)c(OC)cc2n1 [Example 8, 4-[3-(2-Chlorobenzoylamino)phenyl]-6,7-dimethoxy-2-methylaminoquinazoline]
124 to 126 °C | CNc1nc(-c2cccc(NC(=O)c3cccc(Cl)c3)c2)c2cc(OC)c(OC)cc2n1 [Example 9, 4-[3-(3-Chlorobenzoylamino)phenyl]-6,7-dimethoxy-2-methylaminoquinazoline]
193 to 195 °C | CNc1nc(-c2cccc(NC(=O)c3ccc(Cl)cc3)c2)c2cc(OC)c(OC)cc2n1 [Example 10, 4-[3-(4-Chlorobenzoylamino)phenyl]-6,7-dimethoxy-2-methylaminoquinazoline]
194 to 196 °C | CNc1nc(-c2cccc(NC(=O)c3ccccc3OC)c2)c2cc(OC)c(OC)cc2n1 [Example 11, 6,7-Dimethoxy-4-[3-(2-methoxybenzoylamino)phenyl]-2-methylaminoquinazoline]
193 to 195 °C | CNc1nc(-c2cccc(NC(=O)c3cccc(OC)c3)c2)c2cc(OC)c(OC)cc2n1 [Example 12, 6,7-Dimethoxy-4-[3-(3-methoxybenzoylamino)phenyl]-2-methylaminoquinazoline]
219 to 221 °C | CNc1nc(-c2cccc(NC(=O)c3ccc(OC)cc3)c2)c2cc(OC)c(OC)cc2n1 [Example 13, 6,7-Dimethoxy-4-[3-(4-methoxybenzoylamino)phenyl]-2-methylaminoquinazoline]
134 to 136 °C | CNc1nc(-c2cccc(NC(=O)c3ccc(Cl)c(Cl)c3)c2)c2cc(OC)c(OC)cc2n1 [Example 15, 4-[3-(3,4-Dichlorobenzoylamino)phenyl]-6,7-dimethoxy-2-methylaminoquinazoline]
205 to 207 °C | CNc1nc(-c2cccc(NC(=O)C3CC3)c2)c2cc(OC)c(OC)cc2n1 [Example 16, 4-(3-Cyclopropanoylaminophenyl)-6,7-dimethoxy-2-methylaminoquinazoline]
122 to 124 °C | CNc1nc(-c2cccc(NC(=O)c3cc(OC)c(OC)c(OC)c3)c2)c2cc(OC)c(OC)cc2n1 [Example 19, 6,7-Dimethoxy-4-methylamino-4-[3-(3,4,5-trimethoxybenzoylamino)phenyl]quinazoline]
110 to 112 °C | CNc1nc(-c2cccc(NC(=O)c3ccc(OCc4ccccc4)cc3)c2)c2cc(OC)c(OC)cc2n1 [Example 20, 4-[3-(4-Benzyloxybenzoylamino)phenyl]-6,7-dimethoxy-2-methylaminoquinazoline]
110 to 112 °C | CNc1nc(-c2cccc(NC(=O)c3cccc(OCc4ccccc4)c3)c2)c2cc(OC)c(OC)cc2n1 [Example 22, 4-[3-(3-Benzyloxybenzoylamino)phenyl]-6,7-dimethoxy-2-methylaminoquinazoline]
265 to 267 °C | CNc1nc(-c2cccc(NC(=O)c3cccc(O)c3)c2)c2cc(OC)c(OC)cc2n1 [Example 23, 6,7-Dimethoxy-4-[-(3-hydroxybenzoylamino)phenyl]-2-methylaminoquinazoline]
192 to 194 °C | CNc1nc(-c2cccc(NC(=O)c3ccccc3OCc3ccccc3)c2)c2cc(OC)c(OC)cc2n1 [Example 24, 4-[3-(2-Benzyloxybenzoylamino)phenyl]-6,7-dimethoxy-2-methylaminoquinazoline]
212 to 214 °C | CNc1nc(-c2cccc(NC(=O)c3ccccc3O)c2)c2cc(OC)c(OC)cc2n1 [Example 25, 6,7-Dimethoxy-4-[3-(2-hydroxybenzoylamino)phenyl]-2-methylaminoquinazoline]
209 to 211 °C | CNc1nc(-c2cccc(NC(=O)c3ccc(SC)cc3)c2)c2cc(OC)c(OC)cc2n1 [Example 26, 6,7-Dimethoxy-2-methylamino-4-[3-(4-methylthiobenzoylamino)phenyl]quinazoline]
246 to 248 °C | CNc1nc(-c2cccc(NC(=O)c3ccc([S+](C)[O-])cc3)c2)c2cc(OC)c(OC)cc2n1 (centres unmarked) [Example 27, 6,7-Dimethoxy-2-methylamino-4-[3-(4-methylsulfinylbenzoylamino)phenyl]quinazoline]
277 to 279 °C | CNc1nc(-c2cccc(NC(=O)c3ccc(S(C)(=O)=O)cc3)c2)c2cc(OC)c(OC)cc2n1 [Example 28, 6,7-Dimethoxy-2-methylamino-4-[3-(4-methylsulfonylbenzoylamino)phenyl]quinazoline]
157 to 159 °C | CNc1nc(-c2cccc(NC(=O)c3ccc(Cl)nc3)c2)c2cc(OC)c(OC)cc2n1 [Example 29, 4-[3-(6-Choloronicotinoylamino)phenyl]-6,7-dimethoxy-2-methylaminoquinazoline]
151 to 153 °C | CNc1nc(-c2cccc(NC(=O)c3ccnc(Cl)c3)c2)c2cc(OC)c(OC)cc2n1 [Example 33, 4-[3-(2-Chloroisonicotinoylamino)phenyl]-6,7-dimethoxy-2-methylaminoquinazoline]
230 to 232 °C | CNc1nc(-c2cccc(NS(=O)(=O)c3ccccc3)c2)c2cc(OC)c(OC)cc2n1 [Example 35, 4-(3-Benzenesulfonamidephenyl)-6,7-dimethoxy-2-methylaminoquinazoline]
218 to 220 °C | CNc1nc(-c2cccc(NC(=O)Nc3ccccc3)c2)c2cc(OC)c(OC)cc2n1 [Example 36, 6,7-Dimethoxy-2-methylamino-4-[3-(3-phenylureido)phenyl]quinazoline]
280 to 282 °C | CNc1nc(-c2cccc(N3C(=O)c4ccccc4C3=O)c2)c2cc(OC)c(OC)cc2n1 [Example 37, 6,7-Dimethoxy-2-methylamino-4-(3-phthalimidephenyl) quinazoline]
146 to 148 °C | CNc1nc(-c2cccc(NCc3ccccc3)c2)c2cc(OC)c(OC)cc2n1 [Example 38]
